According to patent publication US9970848B2, “Method for evaluating state of horny layer and method for evaluating horny layer improvement effect of cosmetic preparation” (Shiseido Company, Ltd., priority 2013, dated 2018):

Test system: stratum corneum sheets obtained from the forearm flexor region
Assay: Screening of candidate cosmetics for ameliorating effect on the stratum corneum (fluorescein staining after wetting and drying)
Details: 3% aqueous solution, 1 h immersion, dried 2 hours at 0% humidity, room temperature; 0.2 w/v % uranin staining; 12 visual fields averaged
Protocol: Stratum corneum sheets obtained from the forearm flexor region using stratum corneum release tape were affixed to glass slides, and each affixed stratum corneum sheet was immersed for one hour in water (two sheets) as a control and in a 3% erythritol aqueous solution (ER) and a 3% AQUAINPOOL 1407 aqueous solution (AQ), as candidate cosmetics. Next, one of the water-wetted stratum corneum sheets was dried at 0% humidity, room temperature, while the other was dried for 2 hours at 90% humidity, room temperature. The stratum corneum sheets wetted with ER and AQ were dried for 2 hours at 0% humidity, room temperature. […] The taken image was corrected for distortion and digitized using analysis software, and the fluorescent brightness was calculated.

OC[C@@H](O)[C@@H](O)CO [ER, erythritol]
fluorescent brightness compared with the water-wetted stratum corneum sheet (dried at 0% humidity): about the same
